Laboratory results from patent US12241099B2, “Peptide therapeutics for treating Alzheimer's disease and related conditions” (The Board of Regents of the University of Oklahoma, priority 2018, dated 2025).
pIC50: −log10 of the molar value. Residues, ends and D or L forms follow the SMILES beside them.

Tests used:
[1] = tested on: mouse neuroblastoma cell line Neuro-2a; experiment: Neurotoxicity assay of Aβ1-42 fibrils/oligomers (trypan blue cell death); format: cell-based; conditions: oligomers formed 15 min in presence of increasing concentrations; 18 μM Aβ1-42 on cells, 24 hours
Protocol: A mouse neuroblastoma cell line Neuro-2a from ATCC was used for these experiments. Cells were grown and seeded in 96 well plates at 20,000 cells per well in complete medium (MEM α, nucleosides, no phenol red from Gibco, with 10% heat inactivated fetal bovine serum from Gibco, and penicillin/streptomycin from Lonza). At 24 hours after seeding, cells were washed with warmed MEM α, and then incubated in 90 μl MEM α+N2 Supplements+20 μl test sample (Aβ1-42 prepared as described below). Cells were incubated another 24 hours at 37° C., and then dislodged by pipetting up and down vigorously. 10 μl of cells were added to 10 μl trypan blue dye (0.4% solution) from BioRad, mixed and counted in a BioRad TC20 cell counter. The percent of living and dead cells was recorded for each well. In the case of the water and Triton X100 controls, 20 μl MEM α+N2 Supplements was added instead of the test sample and, just before counting the cells, 20 μl of medium was removed and replaced with 20 μl water or Triton X100 at a final concentration of 0.1%.
Monomeric Aβ1-42 (hexafluoroisopropanol treated Aβ1-42) from Bachem was reconstituted at 5 mM in anhydrous DMSO. Untreated Aβ1-42 from CS Bio was also used in these experiments. It was first treated with 1 mM in hexafluoroisopropanol from Sigma Aldrich, incubated 30 min at room temperature, and left open to dry in the fume hood overnight. It was then vacuum desiccated for 1 hour at room temperature. Dry films of Aβ1-42 were stored at −20° C. until use to keep it under a monomeric form. Aβ1-42 from CS Bio was also reconstituted in anhydrous DMSO at 5 mM before use.
To prepare the fibril and oligomer test samples, monomeric Aβ1-42 was placed under conditions favoring either formation of fibrils or oligomers. To form fibrils, 100 μM Aβ1-42 was added to Anaspec fibrillation buffer A±neutrophil protein, and incubated at 37° C. 24 hours before addition to the cells at a final concentration of 18 μM. Neutrophil proteins were used at Aβ/Protein ratios that led to 50% inhibition of fibrillation (IC50), previously determined for each protein in the fibrillation assay. To form oligomers, MEM α+N2 Supplements was used instead of the fibrillation buffer A±increasing concentrations of neutrophil protein or CAP37-derived peptide. Each mixture was then added to a tube containing freshly prepared Aβ1-42 in DMSO at a final concentration of 100 μM, and incubated 15 min at room temperature. These test samples were then tested on the cells at a final concentration of 18 μM.
Oligomers were formed by incubating 100 μM Aβ1-42 in MEMα+N2 Supplements at 4° C. for 3 days. […] Finally, these oligomers were added to neurons at a final concentration of 18 μM, and percent cell death was measured at 24 h.

Aβ1-42 [2] = molecular target: T1, Aβ1-42 (Homo sapiens, UniProt P05067); experiment: Enzyme activity assay (cleavage of Aβ1-42, MALDI-TOF); format: biochemical; parameters: used to monitor the formation of Aβ1-42 peptide fibrils; purchased Anaspec
Protocol: Aβ1-42 treated with hexafluoroisopropanol was purchased from Bachem and reconstituted in anhydrous DMSO at 5 mM. Reactions were set up with increasing concentrations of enzyme (CAP37, NE or CG) and 10 μM Aβ1-42 substrate in PBS, and incubated at 37° C. for 1 hour. Reactions were stopped by the addition of acetonitrile and trifluoroacetic acid (TFA) to final concentrations of 7.5% and 0.5% respectively. Internal standard (Aβ40-1 from Bachem) dissolved in 10% acetic acid was added to a final concentration of 8 μg/ml. A 10 μl aliquot of this mixture was desalted on a C18 OMIX tip from Agilent Technologies. First, the C18 resin was rinsed with 2×10 μl of 50% methanol, then 2×10 μl of equilibration buffer (5% acetonitrile 0.5% TFA), then the sample was applied to the resin by pipetting 10 times through the resin, which was then washed twice with equilibration buffer and eluted with 75% acetonitrile 0.1% TFA.
Desalted samples were analyzed by Matrix Assisted Laser Desorption/Ionization-Time of Flight mass spectrometry (MARLDI-TOF) using a Bruker Ultraflex II instrument and Flex Control Software. […] Chromatographs were analyzed with Flex Analysis software. […] The ratio of the Aβ1-42 peak intensity divided by the internal standard peak intensity was calculated for each spot, and triplicate spots were averaged to determine the amount of uncleaved Aβ in each enzymatic reaction.

Aβ1-42 [3] = molecular target: T1, Aβ1-42; experiment: Amyloid Beta (1-42) Thioflavin T fibrillation (aggregation) assay; format: biochemical; parameters: used to monitor the formation of Aβ1-42 peptide fibrils; purchased Anaspec
Protocol: The Amyloid Beta (1-42) Thioflavin T Aggregation Kit was purchased from Anaspec and used to monitor the formation of Aβ1-42 peptide fibrils, according to the manufacturer's instructions, with some modifications. Thioflavin T dye was diluted to 250 μM in fibrillation buffer A and kept in the dark until use. […] Neutrophil proteins were tested in the absence and presence of protease inhibitors. […] Chymostatin was dissolved in DMSO and used at 125 μM final concentration in reactions with CG. Reactions were pipetted up and down twice in the wells with a multichannel pipette to ensure mixing, and fluorescence (ΔEX=440 nm, ΔEm=485 nm) was read every 5 minutes for 3 hours on a BioTek Synergy 2 plate reader with Gen 5 software, with a sensitivity set at 65.

Aβ1-42 [4] = molecular target: T1, Aβ1-42; experiment: ELISA binding of Aβ1-42 to plate-coated neutrophil proteins and derived peptides; conditions: 150 nM Aβ1-42; plate coated with protein/peptide at 5 μg/ml; no protease inhibitor
Protocol: CAP37, NE, and CG were purified from human neutrophils and purchased from Athens Research and Technology. BSA was from Sigma Aldrich. CAP37-derived peptides were synthesized by CS Bio Co with a purity >95%. Maxisorp plates from Nunc were coated with 100 μl neutrophil protein, peptide, or BSA diluted at 5 μg/ml in PBS with or without 1 mM PMSF purchased from Sigma Aldrich (for experiments with CAP37, NE, and BSA) or ±125 μM chymostatin purchased from Santa Cruz (for experiments with CG and BSA). Plate coating was done at room temperature for 2 hours with shaking and then at 4° C. overnight. Plates were washed three times in PBST (PBS+0.05% tween), then blocked with 3% BSA in PBST for 1 hour at room temperature with shaking. Plates were washed 3× in PBST, and 150 nM Aβ1-42 (purchased from Bachem and reconstituted in 1 mM NaOH) was added in 0.1% BSA in PBST and incubated 70 minutes at 37° C. Plates were then washed 4 times with PBST and monoclonal mouse anti-amyloid precursor protein/amyloid beta antibody, purchased from Cell Signaling Technology was added at a 1:500 dilution in 1% BSA in PBST and incubated for 1 hour at room temperature with shaking. Plates were washed 4× in PBST and donkey anti mouse HRP-conjugated secondary antibody from Jackson ImmunoResearch Laboratories was added at 1:10,000 in PBST and incubated 1 hour at room temperature with shaking, then washed 4 times in PBST. […] Sulfuric acid (5N) was added to each well to stop the reaction, and the absorbance at 492 nm was read on a Biotek Synergy II plate reader.

T1 sequence (P05067 672-713 limits assumed): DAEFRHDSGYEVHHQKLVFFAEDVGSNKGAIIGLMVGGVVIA

CC(C)C[C@H](NC(=O)[C@H](CCCNC(=N)N)NC(=O)CNC(=O)CNC(=O)[C@H](CO)NC(=O)[C@H](CCCNC(=N)N)NC(=O)[C@H](Cc1c[nH]c2ccccc12)NC(=O)[C@H](CO)NC(=O)CNC(=O)[C@H](Cc1c[nH]c2ccccc12)NC(=O)CNC(=O)[C@H](C)NC(=O)[C@@H](NC(=O)[C@H](CCC(N)=O)NC(=O)[C@H](CS)NC(=O)[C@H](CCCNC(=N)N)NC(=O)[C@@H](NC(=O)CN)[C@@H](C)O)C(C)C)C(=O)N[C@@H](CO)C(=O)N[C@@H](CCCNC(=N)N)C(=O)N[C@@H](Cc1ccccc1)C(=O)N1CCC[C@H]1C(=O)N[C@@H](CCCNC(=N)N)C(=O)N[C@@H](Cc1ccccc1)C(=O)N[C@H](C(=O)N[C@@H](CC(N)=O)C(=O)N[C@H](C(=O)O)C(C)C)C(C)C [120-146 WR] (H-GTRCQVAGWGSWRSGGRLSRFPRFVNV-OH; N-terminus and C-terminus assumed)
effect on Aβ1-42 oligomer toxicity [1]: significantly inhibited
enzymatic activity on Aβ1-42 (Aβ1-42 [2]): do not have enzymatic activities
pIC50 (Aβ1-42 [3]; at time of complete fibrillation of Aβ1-42 control, no protease inhibitor): ~6.00
inhibition of Aβ1-42 fibrillation (in words) (Aβ1-42 [3]; increasing concentrations of peptide, Rfu): able to inhibit fibrillation
molar ratio inhibitor/Aβ1-42 corresponding to IC50 of fibrillation (Aβ1-42 [3]; ratio at IC50): 1/10
binding of Aβ1-42 (Aβ1-42 [4]): binds
